In PubChem BioAssay (NCI):
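Values below derive from 48-hour exposures of cells grown in 96-well plates, with endpoints linearly interpolated between the two concentrations bracketing the appropriate inhibition level. TGI marks complete inhibition of growth.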

Key:
Test in all cases: NCI anticancer screen, dose series, 48 h
[1] = tested on: HL-60(TB) leukemia
[2] = tested on: NCI-H23 lung
[3] = tested on: DMS 273 small cell lung
[4] = tested on: SNB-75 CNS
[5] = tested on: HCC-2998 colon
[6] = tested on: TK-10 renal
[7] = tested on: SF-268 CNS
[8] = tested on: SK-MEL-5 melanoma
[9] = tested on: SN12C renal
[10] = tested on: IGROV1 ovarian
[11] = tested on: KM20L2 colon
[12] = tested on: SW-620 colon
[13] = tested on: KM12 colon
[14] = tested on: M19-MEL melanoma
[15] = tested on: UACC-257 melanoma
[16] = tested on: LXFL 529 NSCLC
[17] = tested on: CAKI-1 renal
[18] = tested on: A549 NSCLC
[19] = tested on: SK-MEL-28 melanoma
[20] = tested on: RXF 393 renal
[21] = tested on: UACC-62 melanoma
[22] = tested on: COLO 205 colon
[23] = tested on: SF-295 CNS
[24] = tested on: HOP-62 NSCLC
[25] = tested on: OVCAR-8 ovarian
[26] = tested on: EKVX NSCLC
[27] = tested on: CCRF-CEM leukemia
[28] = tested on: NCI-H522 lung
[29] = tested on: OVCAR-4 ovarian
[30] = tested on: XF 498 CNS
[31] = tested on: RXF-631 renal
[32] = tested on: HT29 colon
[33] = tested on: NCI-H226 lung
[34] = tested on: MALME-3M melanoma
[35] = tested on: K-562 leukemia
[36] = tested on: DLD-1 colon
[37] = tested on: SK-OV-3 ovarian
[38] = tested on: A498 renal
[39] = tested on: DMS 114 small cell lung
[40] = tested on: 786-0 renal
[41] = tested on: UO-31 renal
[42] = tested on: SNB-78 CNS
[43] = tested on: OVCAR-3 ovarian
[44] = tested on: MOLT-4 leukemia
[45] = tested on: HCT-116 colon
[46] = tested on: SR leukemia
[47] = tested on: NCI-H460 lung
[48] = tested on: HOP-18 NSCLC
[49] = tested on: ACHN renal
[50] = tested on: SNB-19 CNS
[51] = tested on: SF-539 CNS
[52] = tested on: RPMI-8226 leukemia
[53] = tested on: U251 CNS
[54] = tested on: LOX IMVI melanoma
[55] = tested on: M14 melanoma
[56] = tested on: HOP-92 NSCLC

Measured: TGI

Cc1cc(NS(=O)(=O)c2ccc(NC(=O)c3cccn4c(=O)c5ccccc5nc34)cc2)no1
> 100 µM: [1] | [2] | [3] | [4] | [5] | [6] | [7] | [8] | [9] | [10] | [11] | [12] | [13] | [14] | [15] | [16] | [17] | [18] | [19] | [20] | [21] | [22] | [23] | [24] | [25] | [26] | [27] | [28] | [29] | [30] | [31] | [32] | [33] | [34] | [35] | [36] | [37] | [38] | [39] | [40] | [41] | [42] | [43] | [44] | [45] | [46] | [47] | [48] | [49] | [50] | [51] | [52] | [53] | [54] | [55] | [56]
